# Where two headings read alike, the source gives them in different places.
# What was measured:
# [1] = test system: DU-145; assay: Inhibition of cells growth by colorimetric (SRB) assay, DU-145; details: for GI50: read-out: GI50 DU-145
# Method in brief: (§1)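 Human tumour cells seeded at 5×10^3/well in RPMI 1640 10% FBS, attached 18 h, then exposed 48 h to samples at 10 to 10^−8 μg/ml in DMSO/EtOH/PBS (0.5:0.5:99). Growth read by SRB staining after TCA fixation, OD 490 nm, triplicate wells; GI, TGI and LC derived.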
# [2] = test system: LoVo; assay: Inhibition of cells growth by colorimetric (SRB) assay, LoVo; details: for CC50: read-out: LC50 LOVO
# Method in brief: as §1
# [3] = test system: SK-MEL-28; assay: Inhibition of cells growth by colorimetric (SRB) assay, SK-MEL-28
# Method in brief: as §1
# [4] = test system: HT-29; assay: Inhibition of cells growth by colorimetric (SRB) assay, HT-29
# Method in brief: as §1
# [5] = test system: SK-OV-3; assay: Inhibition of cells growth by colorimetric (SRB) assay, SK-OV-3
# Method in brief: as §1
# [6] = test system: IGROV-1; assay: Inhibition of cells growth by colorimetric (SRB) assay, IGROV-1; details: for CC50: read-out: LC50 IGROV
# Method in brief: as §1
# [7] = test system: LNCaP; assay: Inhibition of cells growth by colorimetric (SRB) assay, LNCaP; details: for CC50: read-out: LC50 LN-caP
# Method in brief: as §1
# [8] = test system: PANC-1; assay: Inhibition of cells growth by colorimetric (SRB) assay, PANC-1; details: for GI50: read-out: GI50 PANC-1
# Method in brief: as §1
# [9] = test system: LoVo-Dox; assay: Inhibition of cells growth by colorimetric (SRB) assay, LoVo-Dox
# Method in brief: as §1
# [10] = test system: K-562; assay: Inhibition of cells growth by colorimetric (SRB) assay, K-562; details: for GI50: read-out: GI50 K-562
# Method in brief: as §1
# [11] = test system: A-549; assay: Inhibition of cells growth by colorimetric (SRB) assay, A-549; details: for GI50: read-out: GI50 A-549
# Method in brief: as §1
# [12] = test system: SK-BR-3; assay: Inhibition of cells growth by colorimetric (SRB) assay, SK-BR-3; details: SRB assay, 48 hours exposure; for GI50: read-out: GI50 SK-BR-3; for CC50: read-out: LC50 SK-BR-3
# Method in brief: as §1
# [13] = test system: HMEC1; assay: Inhibition of cells growth by colorimetric (SRB) assay, HMEC1; details: for TGI H-MEC-1: in M (unit assumed); for CC50: read-out: LC50 H-MEC-1
# Source text: The finality of these assays is to interrupt the growth of a “in vitro” tumor cell culture by means a continued exhibition of the cells to the sample to be testing.
# This form of the assay employs 96 well cell culture microplates of 9 mm diameter (Faircloth, 1988; Mosmann, 1983). Most of the cell lines are obtained from American Type Culture Collection (ATCC) derived from different human cancer types.
# Cells are maintained in RPMI 1640 10% FBS, supplemented with 0.1 g/l penicillin and 0.1 g/l streptomycin sulphate and then incubated at 37° C., 5% CO2 and 98% humidity. For the experiments, cells were harvested from subconfluent cultures using trypsin and resuspended in fresh medium before plating.
# Cells are seeded in 96 well microtiter plates, at 5×10^3 cells per well in aliquots of 195 μl medium, and they are allowed to attach to the plate surface by growing in drug free medium for 18 hours. Afterward, samples are added in aliquots of 5 μl in a ranging from 10 to 10^−8 μg/ml, dissolved in DMSO/EtOH/PBS (0.5:0.5:99). After 48 hours exposure, the antitumor effect are measured by the SRB methodology: cells are fixed by adding 50 μl of cold 50% (wt/vol) trichloroacetic acid (TCA) and incubating for 60 minutes at 4° C. Plates are washed with deionized water and dried. One hundred μl of SRB solution (0.4% wt/vol in 1% acetic acid) is added to each microtiter well and incubated for 10 minutes at room temperature. Unbound SRB is removed by washing with 1% acetic acid. Plates are air dried and bound stain is solubilized with Tris buffer. Optical densities are read on a automated spectrophotometric plate reader at a single wavelength of 490 nm.
# The values for mean +/−SD of data from triplicate wells are calculated. Some parameters for cellular responses can be calculated: GI=growth inhibition, TGI=total growth inhibition (cytostatic effect) and LC=cell killing (cytotoxic effect).
# [14] = test system: IGROV-ET; assay: Inhibition of cells growth by colorimetric (SRB) assay, IGROV-ET
# Method in brief: as §1
smiles,measurement,setting,value
Cc1ccc2c(-c3ccnc(N)n3)c3ccnc(N)n3c2n1 [Compound 24],CC50,"[1]; Homo sapiens, DU-145, 48 h, read-out: LC50 DU-145, SRB assay, 48 hours exposure",15600 nM
same,TGI DU-145,"[1]; SRB assay, 48 hours exposure",1.91E−06
same,GI50,"[1]; SRB assay, 48 hours exposure",831 nM
same,TGI LOVO,"[2]; SRB assay, 48 hours exposure",1.22E−06
same,GI50,"[2]; read-out: GI50 LOVO, SRB assay, 48 hours exposure",325 nM
same,CC50,"[2]; SRB assay, 48 hours exposure",> 34300 nM
same,TGI MEL-28,"[3]; SRB assay, 48 hours exposure",3.43E−06
same,GI50,"[3]; read-out: GI50 MEL-28, SRB assay, 48 hours exposure",721 nM
same,CC50,"[3]; read-out: LC50 MEL-28, SRB assay, 48 hours exposure",12600 nM
same,TGI HT-29,"[4]; SRB assay, 48 hours exposure",3.43E−05
same,GI50,"[4]; read-out: GI50 HT-29, SRB assay, 48 hours exposure",16400 nM
same,CC50,"[4]; read-out: LC50 HT-29, SRB assay, 48 hours exposure",≥ 34300 nM
same,TGI SKOV-3,"[5]; SRB assay, 48 hours exposure",1.00E−05
same,GI50,"[5]; read-out: GI50 SKOV-3, SRB assay, 48 hours exposure",1390 nM
same,CC50,"[5]; read-out: LC50 SKOV-3, SRB assay, 48 hours exposure",≥ 34300 nM
same,TGI IGROV,"[6]; SRB assay, 48 hours exposure",6.38E−06
same,GI50,"[6]; read-out: GI50 IGROV, SRB assay, 48 hours exposure",995 nM
same,CC50,"[6]; SRB assay, 48 hours exposure",23000 nM
same,TGI LN-caP,"[7]; SRB assay, 48 hours exposure",7.24E−07
same,GI50,"[7]; read-out: GI50 LN-caP, SRB assay, 48 hours exposure",174 nM
same,CC50,"[7]; SRB assay, 48 hours exposure",≥ 34300 nM
same,TGI PANC-1,"[8]; SRB assay, 48 hours exposure",2.06E−05
same,GI50,"[8]; SRB assay, 48 hours exposure",3880 nM
same,CC50,"[8]; read-out: LC50 PANC-1, SRB assay, 48 hours exposure",≥ 34300 nM
same,TGI LOVO-DOX,"[9]; SRB assay, 48 hours exposure",3.43E−06
same,GI50,"[9]; read-out: GI50 LOVO-DOX, SRB assay, 48 hours exposure",642 nM
same,CC50,"[9]; read-out: LC50 LOVO-DOX, SRB assay, 48 hours exposure",≥ 34300 nM
same,TGI K-562,"[10]; SRB assay, 48 hours exposure",7.35E−06
same,GI50,"[10]; SRB assay, 48 hours exposure",1620 nM
same,CC50,"[10]; read-out: LC50 K-562, SRB assay, 48 hours exposure",22200 nM
same,TGI A-549,"[11]; SRB assay, 48 hours exposure",6.87E−06
same,GI50,"[11]; SRB assay, 48 hours exposure",1380 nM
same,CC50,"[11]; read-out: LC50 A-549, SRB assay, 48 hours exposure",17500 nM
same,TGI SK-BR-3,[12],4.77E−06
same,GI50,[12],1040 nM
same,CC50,[12],10400 nM
same,TGI H-MEC-1,"[13]; SRB assay, 48 hours exposure",7.86E−07
same,GI50,"[13]; read-out: GI50 H-MEC-1, SRB assay, 48 hours exposure",247 nM
same,CC50,"[13]; SRB assay, 48 hours exposure",2670 nM
same,TGI IGROV-ET,"[14]; SRB assay, 48 hours exposure",7.11E−06
same,GI50,"[14]; read-out: GI50 IGROV-ET, SRB assay, 48 hours exposure",1010 nM
same,CC50,"[14]; read-out: LC50 IGROV-ET, SRB assay, 48 hours exposure",≥ 34300 nM
Cl.Nc1nccc(-c2c3cc4ccccc4nc3n3c(N)nccc23)n1 [Compound 42],TGI DU-145,"[1]; SRB assay, 48 hours exposure",6.10E−06
same,GI50,"[1]; SRB assay, 48 hours exposure",1480 nM
same,CC50,"[1]; read-out: LC50 DU-145, SRB assay, 48 hours exposure",21100 nM
same,GI50,"[2]; Homo sapiens, LoVo, 48 h, read-out: GI50 LOVO, SRB assay, 48 hours exposure",884 nM
same,TGI LOVO,"[2]; SRB assay, 48 hours exposure",5.42E−06
same,CC50,"[2]; SRB assay, 48 hours exposure",25000 nM
same,GI50,"[3]; Homo sapiens, SK-MEL-28, 48 h, read-out: GI50 MEL-28, SRB assay, 48 hours exposure",2560 nM
same,CC50,"[3]; Homo sapiens, SK-MEL-28, 48 h, read-out: LC50 MEL-28, SRB assay, 48 hours exposure",25000 nM
same,TGI MEL-28,"[3]; SRB assay, 48 hours exposure",2.50E−05
same,GI50,"[4]; Homo sapiens, HT-29, 48 h, read-out: GI50 HT-29, SRB assay, 48 hours exposure",1990 nM
same,CC50,"[4]; Homo sapiens, HT-29, 48 h, read-out: LC50 HT-29, SRB assay, 48 hours exposure",25000 nM
same,TGI HT-29,"[4]; SRB assay, 48 hours exposure",2.50E−05
same,GI50,"[5]; Homo sapiens, SK-OV-3, 48 h, read-out: GI50 SKOV-3, SRB assay, 48 hours exposure",1080 nM
same,CC50,"[5]; Homo sapiens, SK-OV-3, 48 h, read-out: LC50 SKOV-3, SRB assay, 48 hours exposure",21500 nM
same,TGI SKOV-3,"[5]; SRB assay, 48 hours exposure",5.32E−06
same,GI50,"[6]; Homo sapiens, IGROV-1, 48 h, read-out: GI50 IGROV, SRB assay, 48 hours exposure",1560 nM
same,TGI IGROV,"[6]; SRB assay, 48 hours exposure",5.15E−06
same,CC50,"[6]; SRB assay, 48 hours exposure",13000 nM
same,GI50,"[7]; Homo sapiens, LNCaP, 48 h, read-out: GI50 LN-caP, SRB assay, 48 hours exposure",432 nM
same,TGI LN-caP,"[7]; SRB assay, 48 hours exposure",1.25E−06
same,CC50,"[7]; SRB assay, 48 hours exposure",5970 nM
same,CC50,"[8]; Homo sapiens, PANC-1, 48 h, read-out: LC50 PANC-1, SRB assay, 48 hours exposure",25000 nM
same,TGI PANC-1,"[8]; SRB assay, 48 hours exposure",2.50E−05
same,GI50,"[8]; SRB assay, 48 hours exposure",8870 nM
same,GI50,"[9]; Homo sapiens, 48 h, read-out: GI50 LOVO-DOX, SRB assay, 48 hours exposure",954 nM
same,CC50,"[9]; Homo sapiens, 48 h, read-out: LC50 LOVO-DOX, SRB assay, 48 hours exposure",15500 nM
same,TGI LOVO-DOX,"[9]; SRB assay, 48 hours exposure",3.62E−06
same,CC50,"[10]; Homo sapiens, K562, 48 h, read-out: LC50 K-562, SRB assay, 48 hours exposure",14600 nM
same,TGI K-562,"[10]; SRB assay, 48 hours exposure",7.69E−06
same,GI50,"[10]; SRB assay, 48 hours exposure",4070 nM
same,CC50,"[11]; Homo sapiens, A549, 48 h, read-out: LC50 A-549, SRB assay, 48 hours exposure",14300 nM
same,TGI A-549,"[11]; SRB assay, 48 hours exposure",2.26E−06
same,GI50,"[11]; SRB assay, 48 hours exposure",135 nM
same,TGI SK-BR-3,[12],3.22E−07
same,GI50,[12],67.7 nM
same,CC50,[12],1670 nM
same,GI50,"[13]; Homo sapiens, HMEC-1, 48 h, read-out: GI50 H-MEC-1, SRB assay, 48 hours exposure",114 nM
same,TGI H-MEC-1,"[13]; SRB assay, 48 hours exposure",5.32E−07
same,CC50,"[13]; SRB assay, 48 hours exposure",1860 nM
same,GI50,"[14]; Homo sapiens, 48 h, read-out: GI50 IGROV-ET, SRB assay, 48 hours exposure",1700 nM
same,CC50,"[14]; Homo sapiens, 48 h, read-out: LC50 IGROV-ET, SRB assay, 48 hours exposure",15400 nM
same,TGI IGROV-ET,"[14]; SRB assay, 48 hours exposure",5.45E−06

# Reference: US7772241B2, “Variolin derivatives and their use as antitumor agents” (Pharma Mar S.A., priority 2001, dated 2010)
